Read-outs that look alike come from different tables or passages of the source.
Key:
[1] = tested on: patients after severe aneurysmal SAH (WFNS grade 3, 4 or 5); conditions: for percentage change in ADR, median: (during infusion-baseline)/baseline x100; for mean percentage change from baseline ADR over time, FIG. 3: after commencement of the nitrite infusion
Text: Patients aged 18-80 years admitted to the Neurosciences Intensive Care Unit (NICU) at the John Radcliffe Hospital, Oxford after having suffered severe aneurysmal SAH (WFNS grade 3, 4 or 5 at time of presentation) were eligible for inclusion in the study. There were no specific selection criteria apart from grade of SAH, and the absence of any exclusion criteria (see below).
Following definitive endovascular aneurysm treatment, each patient underwent a two hour period of continuous EEG monitoring (Porti 7 system, Twente Medical Systems International) on one occasion as soon as was practically possible after endovascular securing of the aneurysm.
(§1) Sedative drug levels, muscle relaxants and vasopressors were documented and changes in infusion rates were minimised for the duration of the recording.
We used a simplified EEG montage that aimed for compromise between stable maintenance of recording and full coverage of all vascular territories. Consequently, 7-13 unipolar EEG electrodes (depending on the presence of external ventricular drains and intracranial pressure (ICP) monitors) at the following positions defined according to the international 10-20 system: Cz, Fz, Pz, Fp1, Fp2, F3, F4, P3, P4, T3, T4, O1, O2. EEG data were digitized at a sampling rate of 2048 Hz, with a high pass filter of 0.5 Hz and a low pass filter of 30 Hz.
Each surviving patient was followed up at three to six months post-rupture. Telephone follow up was performed for patients who were unable to attend hospital due to their clinical status. Primary outcome was measured by the presence or absence of delayed ischemia. Long term outcome was assessed by modified Rankin scale at 3 months, via structured standardised questions in person or by telephone. The modified Rankin scale, is a commonly used grading system that measures the degree of disability or dependence in the daily activities of people who have suffered a neurological insult. Good outcome is defined as a score of 0-2, whereas poor outcome is defined as ≥3.
Inc.) code and the EEGLAB v13.4.3b analysis toolbox. Datasets were re-referenced to the average of bilateral mastoid reference electrodes and band pass filtered from 0.5 to 15 Hz using a linear finite impulse response (FIR) filter. Each EEG recording was visually inspected and artefacts were manually removed. Channels showing evidence of excessive amounts of noise were removed from each recording.
Spectral analysis was carried out using FieldTrip, a MATLAB software toolbox for EEG analysis. Data was windowed into 30-second segments that overlapped by 50%. Time-frequency analysis was performed using a multi-taper spectral estimation using discrete prolate spheroidal (Slepian) sequences with 14 tapers, and fast Fourier transform algorithm for each electrode channel. Five 60-second epochs were selected randomly from the first (baseline) and last thirty minutes of the recording (during infusion). The epochs were separated by at least 60 seconds to avoid autocorrelation. The corresponding frequency distribution in each epoch was identified, which enabled determination of power values in the following frequency bands: delta 1-4 Hz, alpha 8-12 Hz and total low frequency power 1-15 Hz.
Statistical analysis was carried out using R and the analysis package nlme. We applied a two level linear mixed effects multilevel model to the data to allow for within patient correlation due to repeated measures on each patient over time. […] A qqnorm plot was used to identify any outliers and these were subsequently eliminated from the model. Goodness of fit was assessed via Shapiro-Wilk normality tests on fixed and random effect residuals, and calculation of R^2 for the model.

[2] = tested on: patients after severe aneurysmal SAH (WFNS grade 3, 4 or 5)
Procedure: as §1
The patients also underwent simultaneous transcranial Doppler (TCD) monitoring. Insonation of the MCA M1 segment was performed unilaterally on the side with the best window using colour-coded duplex ultrasound (EZ-Dop, DWL; 2 Mz probe).
The patient's PETCO2, end-tidal O2, ABP and SpO2 were recorded continuously and collected on a Power-1401 data acquisition interface (Cambridge Electronic Design). […] Arterial CO2 values were collected once during the duration of the recording as part of routine clinical care.
Waveform analysis was performed using custom written MATLAB code, enabling calculation of average pre and during infusion values for TCD middle cerebral artery velocity (MCAV) ABP, PETCO2, end-tidal O2 and ICP.

SMILES: O=NO [sodium nitrite]
- percentage change in ADR, median ([1]; good outcome group): increases
- mean percentage change from baseline ADR over time, FIG. 3 ([1]; good outcome group): increases
- ADR during infusion, median ([1]; good outcome group, baseline median 0.03): 0.05
- delta power response to a 1-hour infusion (discussion) ([1]; patients with good outcome): significant increase
- percentage change in ADR, median ([1]; poor outcome group): no significant differences
- mean percentage change from baseline ADR over time, FIG. 3 ([1]; poor outcome group): does not change
- baseline versus during infusion ADR ([1]; poor outcome patients (mRS >=3)): no significant differences
- mean MAP in response to sodium nitrite ([2]; 14 patients, from a mean MAP of 87 mmHg, p=0.026): 84 mmHg
- change in TCD, MCAV as a result of sodium nitrite infusion ([2]; pre versus during infusion): no significant changes
- change in ICP as a result of sodium nitrite infusion ([2]; pre versus during infusion, 10 patients): no significant changes
- change in end tidal CO2 as a result of sodium nitrite infusion ([2]; pre versus during infusion, 13 patients): no significant changes

Source: patent US11077209B2, “Use of cerebral nitric oxide donors in the assessment of the extent of brain dysfunction following injury” (OXFORD UNIVERSITY INNOVATION LIMITED, priority 2016, dated 2021)
